Measured values published in publication PMC11594329, “Development of LAT1-Selective Nuclear Medicine Therapeutics Using Astatine-211” (International Journal of Molecular Sciences, 2024).

Assays:
PANC-1 tumor model = test: Tissue distribution in nude mice (PANC-1 tumor model); assay type: in vivo, BALB/c nu/nu mice; conditions: nude mice (PANC-1 tumor model)
Method: BALB/c nu/nu mice (male, 5 weeks old) were purchased from Japan SLC (Shizuoka, Japan) and subcutaneously transplanted at a density of 1 × 10^7 cells/mouse. PANC-1 cells that reached the logarithmic growth phase were transplanted subcutaneously by mixing a 1 × 10^8 cells/mL cell suspension with an equivalent volume of Matrigel (Corning, Corning, NY, USA) to obtain 1 × 10^7 cells per mouse. Experiments were performed after the size of the transplanted tumor had exceeded 50 mm^3. The doses in the distribution experiments were as follows: ^211At-AAMT-OH-L (0.501 ± 0.011 MBq/mouse, 19.91 ± 0.59 g, n = 3) and ^211At-AAMT-O-Me-L (0.384 ± 0.003 MBq/mouse, 19.18 ± 0.38 g, n = 6 for Table 3), ^211At-AAMT-O-Me-L (158.10 ± 2.94 kBq/mouse, 19.27 ± 0.64 g, n = 6) and ^211At-AAMT-O-Me-D (135.08 ± 2.35 kBq/mouse, 18.64 ± 0.97 g, n = 6), ^211At-AAMT-O-Et-L (0.682 ± 0.011 MBq/mouse, 20.25 ± 1.41 g, n = 6), ^211At-AAMT-O-Pr-L (0.927 ± 0.020 MBq/mouse, 21.74 ± 0.37 g, n = 6).

[1] = Tissue distribution in ICR mice (normal animals); assay type: in vivo
From the text: (§1) ICR mice (male, 5 weeks old) were purchased from Japan SLC (Shizuoka, Japan) and acclimated for one week prior to use. The doses in the distribution experiments were as follows: ^211At-AAMT-O-Me-L (0.407 ± 0.005 MBq/mouse, 31.64 ± 0.76 g, n = 6), ^211At-AAMT-O-Me-D (0.351 ± 0.004 MBq/mouse, 31.44 ± 0.94 g, n = 6), ^211At-AAMT-O-Et-L (0.685 ± 0.010 MBq/mouse, 24.14 ± 3.31 g, n = 6), ^211At-AAMT-O-Pr-L (1.09 ± 0.06 MBq/mouse, 26.33 ± 0.39 g, n = 6)

[2] = Urinary and fecal excretion in ICR mice; assay type: in vivo
Method: Urinary excretion levels were also examined (Supplementary Table S1). Comparing the D-isomer and L isomer of ^211At-AAMT-O-Me from ICR mice, the D-isomer; 24.84 ± 13.03% ID, L-isomer; 33.69 ± 1.26% ID at 1 h after injection. D-isomer; 71.36 ± 4.67% ID, L-isomer; 23.99 ± 2.40% ID at 3 h after injection. From PANC-1 tumor bearing mice, D-isomer; 35.24 ± 8.70% ID, L-isomer; 20.40 ± 0.76% ID at 1 h after injection. D-isomer; 47.38 ± 3.19% ID, L-isomer; 3.23 ± 0.67% ID at 3 h after injection. In tumor-bearing models, the amount of excretion was smaller than that in normal mice. We have already reported that, in the presence of target cancer tissue for administered drugs, retention in the cancer tissue results in reduced excretion compared with normal animals. […] The same was also observed for feces, but very little was excreted in the feces. The results were as follows: from ICR mice, D-isomer; 0.06 ± 0.03% ID, L-isomer; 0.004 ± 0.003% ID at 1 h after injection. D-isomer; 0.02 ± 0.01% ID, L-isomer; 0.02 ± 0.01% ID at 3 h after injection. From PANC-1 tumor bearing mice, D-isomer; 0.25 ± 0.12% ID, L-isomer; 0.002 ± 0.001% ID at 1 h after injection. D-isomer; 0.75 ± 0.46% ID; L-isomer; 0.07 ± 0.03% ID at 3 h after injection.
as §1

COc1ccc(C[C@@](C)(N)C(=O)O)cc1[211At] [^211At-AAMT-O-Me-D]
Tissue distribution, Bladder (PANC-1 tumor model; 1 h after injection): 1.76 ± 1.64 %ID/g
Tissue distribution, Blood (PANC-1 tumor model; 1 h after injection): 3.52 ± 1.89 %ID/g
Tissue distribution, Bone (PANC-1 tumor model; 1 h after injection): 0.30 ± 0.12 %ID/g
Tissue distribution, Brain (PANC-1 tumor model; 1 h after injection): 0.15 ± 0.01 %ID/g
Tissue distribution, Cecum (PANC-1 tumor model; 1 h after injection): 2.35 ± 1.73 %ID/g
Tissue distribution, Colon (PANC-1 tumor model; 1 h after injection): 0.85 ± 0.49 %ID/g
Tissue distribution, Heart (PANC-1 tumor model; 1 h after injection): 0.53 ± 0.08 %ID/g
Tissue distribution, Kidney (PANC-1 tumor model; 1 h after injection): 1.40 ± 0.56 %ID/g
Tissue distribution, Liver (PANC-1 tumor model; 1 h after injection): 3.09 ± 0.39 %ID/g
Tissue distribution, Lung (PANC-1 tumor model; 1 h after injection): 2.24 ± 0.89 %ID/g
Tissue distribution, Pancreas (PANC-1 tumor model; 1 h after injection): 0.61 ± 0.44 %ID/g
Tissue distribution, Salivary glands (PANC-1 tumor model; 1 h after injection): 0.30 ± 0.10 %ID/g
Tissue distribution, Small intestine (PANC-1 tumor model; 1 h after injection): 2.05 ± 0.81 %ID/g
Tissue distribution, Spleen (PANC-1 tumor model; 1 h after injection): 1.70 ± 0.74 %ID/g
Tissue distribution, Stomach (PANC-1 tumor model; 1 h after injection): 1.43 ± 0.94 %ID/g
Tissue distribution, Testis (PANC-1 tumor model; 1 h after injection): 1.05 ± 0.77 %ID/g
Tissue distribution, Thyroid (PANC-1 tumor model; 1 h after injection): 0.14 ± 0.04 %ID/g
Tissue distribution, Tumor (PANC-1 tumor model; 1 h after injection): 3.25 ± 1.39 %ID/g
Tissue distribution, Bladder (PANC-1 tumor model; 3 h after injection): 1.04 ± 0.97 %ID/g
Tissue distribution, Blood (PANC-1 tumor model; 3 h after injection): 1.92 ± 1.16 %ID/g
Tissue distribution, Bone (PANC-1 tumor model; 3 h after injection): 0.26 ± 0.12 %ID/g
Tissue distribution, Brain (PANC-1 tumor model; 3 h after injection): 0.10 ± 0.03 %ID/g
Tissue distribution, Cecum (PANC-1 tumor model; 3 h after injection): 1.32 ± 0.96 %ID/g
Tissue distribution, Colon (PANC-1 tumor model; 3 h after injection): 0.40 ± 0.25 %ID/g
Tissue distribution, Heart (PANC-1 tumor model; 3 h after injection): 0.37 ± 0.03 %ID/g
Tissue distribution, Kidney (PANC-1 tumor model; 3 h after injection): 1.54 ± 0.86 %ID/g
Tissue distribution, Liver (PANC-1 tumor model; 3 h after injection): 2.60 ± 0.07 %ID/g
Tissue distribution, Lung (PANC-1 tumor model; 3 h after injection): 1.27 ± 0.40 %ID/g
Tissue distribution, Pancreas (PANC-1 tumor model; 3 h after injection): 0.48 ± 0.35 %ID/g
Tissue distribution, Salivary glands (PANC-1 tumor model; 3 h after injection): 0.33 ± 0.13 %ID/g
Tissue distribution, Small intestine (PANC-1 tumor model; 3 h after injection): 1.48 ± 0.37 %ID/g
Tissue distribution, Spleen (PANC-1 tumor model; 3 h after injection): 1.81 ± 1.19 %ID/g
Tissue distribution, Stomach (PANC-1 tumor model; 3 h after injection): 1.29 ± 0.77 %ID/g
Tissue distribution, Testis (PANC-1 tumor model; 3 h after injection): 1.64 ± 1.26 %ID/g
Tissue distribution, Thyroid (PANC-1 tumor model; 3 h after injection): 0.14 ± 0.06 %ID/g
Tissue distribution, Tumor (PANC-1 tumor model; 3 h after injection): 3.84 ± 2.10 %ID/g
Tissue distribution, Bladder ([1]; 1 h after injection): 10.62 ± 8.22 %ID/g
Tissue distribution, Blood ([1]; 1 h after injection): 1.90 ± 0.57 %ID/g
Tissue distribution, Bone ([1]; 1 h after injection): 0.93 ± 0.35 %ID/g
Tissue distribution, Brain ([1]; 1 h after injection): 0.15 ± 0.01 %ID/g
Tissue distribution, Cecum ([1]; 1 h after injection): 0.47 ± 0.19 %ID/g
Tissue distribution, Colon ([1]; 1 h after injection): 2.54 ± 1.55 %ID/g
Tissue distribution, Heart ([1]; 1 h after injection): 3.20 ± 1.26 %ID/g
Tissue distribution, Kidney ([1]; 1 h after injection): 1.48 ± 0.39 %ID/g
Tissue distribution, Liver ([1]; 1 h after injection): 0.58 ± 0.11 %ID/g
Tissue distribution, Lung ([1]; 1 h after injection): 2.84 ± 1.11 %ID/g
Tissue distribution, Pancreas ([1]; 1 h after injection): 2.38 ± 1.36 %ID/g
Tissue distribution, Salivary glands ([1]; 1 h after injection): 4.67 ± 1.03 %ID/g
Tissue distribution, Small intestine ([1]; 1 h after injection): 2.66 ± 1.23 %ID/g
Tissue distribution, Spleen ([1]; 1 h after injection): 2.92 ± 1.49 %ID/g
Tissue distribution, Stomach ([1]; 1 h after injection): 6.34 ± 2.74 %ID/g
Tissue distribution, Testis ([1]; 1 h after injection): 1.84 ± 0.23 %ID/g
Tissue distribution, Thymus ([1]; 1 h after injection): 1.89 ± 0.90 %ID/g
Tissue distribution, Thyroid ([1]; 1 h after injection): 8.06 ± 3.56 %ID/g
Tissue distribution, Bladder ([1]; 3 h after injection): 0.19 ± 0.11 %ID/g
Tissue distribution, Blood ([1]; 3 h after injection): 0.38 ± 0.16 %ID/g
Tissue distribution, Bone ([1]; 3 h after injection): 0.28 ± 0.11 %ID/g
Tissue distribution, Brain ([1]; 3 h after injection): 0.04 ± 0.00 %ID/g
Tissue distribution, Cecum ([1]; 3 h after injection): 0.50 ± 0.23 %ID/g
Tissue distribution, Colon ([1]; 3 h after injection): 0.95 ± 0.59 %ID/g
Tissue distribution, Heart ([1]; 3 h after injection): 0.43 ± 0.20 %ID/g
Tissue distribution, Kidney ([1]; 3 h after injection): 0.73 ± 0.15 %ID/g
Tissue distribution, Liver ([1]; 3 h after injection): 1.34 ± 0.47 %ID/g
Tissue distribution, Lung ([1]; 3 h after injection): 0.69 ± 0.28 %ID/g
Tissue distribution, Pancreas ([1]; 3 h after injection): 0.42 ± 0.28 %ID/g
Tissue distribution, Salivary glands ([1]; 3 h after injection): 0.96 ± 0.16 %ID/g
Tissue distribution, Small intestine ([1]; 3 h after injection): 5.33 ± 2.18 %ID/g
Tissue distribution, Spleen ([1]; 3 h after injection): 0.42 ± 0.14 %ID/g
Tissue distribution, Stomach ([1]; 3 h after injection): 8.08 ± 3.50 %ID/g
Tissue distribution, Testis ([1]; 3 h after injection): 0.31 ± 0.02 %ID/g
Tissue distribution, Thymus ([1]; 3 h after injection): 0.18 ± 0.06 %ID/g
Tissue distribution, Thyroid ([1]; 3 h after injection): 0.42 ± 0.20 %ID/g
Excretion in feces ([2]; 1 h after injection): 0.06 ± 0.03 % ID
Urinary excretion ([2]; 1 h after injection): 24.84 ± 13.03 % ID
Excretion in feces ([2]; 3 h after injection): 0.02 ± 0.01 % ID
Urinary excretion ([2]; 3 h after injection): 71.36 ± 4.67 % ID
Urinary content ([2]; after 3 h): exceeded 70%
